Measured values taken from BindingDB's records for doi:10.1021/jm00117a011 (University of Kansas, 1988).

target: Adenosylhomocysteinase (Bos taurus); assay: Evaluated for the 50% inhibition of bovine-liver S-Adenosyl-homocysteine (AdoHcy) hydrolase

Question: Nc1nccc2c1ncn2C/C=C/CO [4-(4-Amino-imidazo[4,5-c]pyridin-1-yl)-but-2-en-1-ol] was tested. Which IC50 did it give?
Answer: Its IC50 is 1230 nM.

Question: With Nc1ncnc2c1ncn2C/C=C/C(O)CO (stereo not given) [5-(6-Amino-purin-9-yl)-pent-3-ene-1,2-diol] as the compound, how does the IC50 read?
Answer: Its IC50 is 950 nM.

Question: Which IC50 does the source give for CC(C)=CCn1cnc2c(N)ncnc21 [9-(3-Methyl-but-2-enyl)-9H-purin-6-ylamine] here?
Answer: The IC50 was 930 nM.

Question: How did the IC50 turn out when Nc1ncnc2c1ncn2CC#CCO was run?
Answer: Its IC50 is 1000 nM.

target: Adenosylhomocysteinase (Bos taurus); assay: as above; remark: another data set of the same source

Question: How did the Ki turn out when C/C(=C\Cn1cnc2c(N)ncnc21)CO [4-(6-Amino-purin-9-yl)-2-methyl-but-2-en-1-ol] was run?
Answer: The Ki was 500 nM.

Question: Nc1nccc2c1ncn2C/C=C\[C@@H](O)CO [5-(4-Amino-imidazo[4,5-c]pyridin-1-yl)-pent-3-ene-1,2-diol] was tested. Which Ki did it give?
Answer: Its Ki is 90 nM.

Question: Nc1ncnc2c1ncn2C/C=C\CO was tested. Which Ki did it give?
Answer: The Ki was 125 nM.

Question: For Nc1ncnc2c1ncn2C/C=C/CO, which Ki is on record?
Answer: The Ki was 330 nM.

Question: With Nc1ncnc2c1ncn2C/C=C(\CO)[C@@H](O)CO as the compound, how does the Ki read?
Answer: The Ki was greater than 1000 nM.

Question: Which Ki does the source give for Nc1ncnc2c1ncn2CC=C(CO)CO [2-[2-(6-Amino-purin-9-yl)-ethylidene]-propane-1,3-diol] here?
Answer: The Ki was 110 nM.

Question: With Nc1nccc2c1ncn2CC=C(CO)CO [2-[2-(4-Amino-imidazo[4,5-c]pyridin-1-yl)-ethylidene]-propane-1,3-diol] as the compound, how does the Ki read?
Answer: Its Ki is 166 nM.

Question: For C/C(=C/Cn1cnc2c(N)ncnc21)CO [4-(6-Amino-purin-9-yl)-2-methyl-but-2-en-1-ol], which Ki is on record?
Answer: Its Ki is 170 nM.

Question: For Nc1ncnc2c1ncn2C/C=C\[C@@H](O)CO [5-(6-Amino-purin-9-yl)-pent-3-ene-1,2-diol], which Ki is on record?
Answer: The Ki was 200 nM.

Question: Nc1nccc2c1ncn2CC#CCO [4-(4-Amino-imidazo[4,5-c]pyridin-1-yl)-but-2-yn-1-ol] was tested. Which Ki did it give?
Answer: Its Ki is 160 nM.

Question: With Nc1nccc2c1ncn2C/C=C\CO [4-(4-Amino-imidazo[4,5-c]pyridin-1-yl)-but-2-en-1-ol] as the compound, how does the Ki read?
Answer: The Ki was 200 nM.
